In US7629356B2, “Substituted pyrrolo[3,4-b]pyridinamines and pharmaceutical compositions” (AstraZeneca AB, priority 2007, dated 2009) one finds Ki data, which are given here for twelve compounds.

This test addresses T1, human β-Secretase (soluble part AA1-AA460, sBACE-Fc) (Homo sapiens, UniProt P56817).
T1 construct: The soluble part of the human β-Secretase (AA1 -AA460) was cloned; Fc domain of IgG1; made in house
The test is described as follows: TR-FRET assay. In kind it is biochemical. The note with it: substrate (Europium)CEVNLDAEFK(Qsy7) 100 nM, pH 4.5, 15 min at RT. The protocol:
The enzyme used in the IGEN Cleavage-, Fluorescent-, TR-FRET- and BiaCore assays is described as follows:
The soluble part of the human β-Secretase (AA1 -AA460) was cloned into the ASP2-Fc10-1-IRES-GFP-neoK mammalian expression vector. The gene was fused to the Fc domain of IgG1 (affinity tag) and stably cloned into HEK 293 cells. Purified sBACE-Fc is stored in Tris buffer, pH 9.2 and has a purity of 95%.
Enzyme was diluted to 6 μg/mL and the substrate (Europium)CEVNLDAEFK(Qsy7) to 200 nM in reaction buffer (NaAcetate, chaps, triton x-100, EDTA pH 4.5). Compounds were diluted to the desired concentration in dimethyl sulfoxide (final dimethyl sulfoxide concentration in assay is 5%). The assay was done in a Costar 384 well round bottom, low volume, non-binding surface plate (Corning #3676). Enzyme (9 μL) and 1 μL of compound in dimethyl sulfoxide was added to the plate, mixed and pre-incubated for 10 min. Substrate (10 μL) was added and the reaction proceeded in the dark for 15 min at RT. The reaction was stopped with the addition of 7 μL NaAcetate, pH 9. The fluorescence of the product was measured on a Victor II plate reader with an excitation wavelength of 340 nm and an emission wavelength of 615 nm. The final concentration of the enzyme was 2.7 μg/ml and the final concentration of the substrate was 100 nM (Km of 290 nM). The dimethyl sulfoxide control defined the 100% activity level and 0% activity was defined by exclusion of the enzyme (using reaction buffer instead).
Background: In TR-FRET formats the signal depends on donor and acceptor labels being close together.

T1 sequence (P56817 22-460): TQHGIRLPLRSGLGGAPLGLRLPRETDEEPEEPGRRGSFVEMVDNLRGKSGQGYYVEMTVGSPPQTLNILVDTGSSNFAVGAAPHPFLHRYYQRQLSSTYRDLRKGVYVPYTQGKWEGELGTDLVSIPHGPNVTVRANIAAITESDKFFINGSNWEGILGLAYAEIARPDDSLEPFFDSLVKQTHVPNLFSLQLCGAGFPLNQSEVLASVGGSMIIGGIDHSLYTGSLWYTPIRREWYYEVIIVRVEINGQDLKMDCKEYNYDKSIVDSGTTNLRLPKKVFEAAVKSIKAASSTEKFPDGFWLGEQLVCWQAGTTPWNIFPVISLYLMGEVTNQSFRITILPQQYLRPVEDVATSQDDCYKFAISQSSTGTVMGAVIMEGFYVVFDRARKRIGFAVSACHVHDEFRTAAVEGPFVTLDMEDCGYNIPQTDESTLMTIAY

For orientation: Ki means a measure of affinity in units of concentration, obtained from inhibition or displacement. Turning to `COc1ccc(C2(c3cccc(-c4cncnc4)c3)N=C(N)c3ncccc32)cc1` (stereo not drawn) [Example 5, 5-(4-Methoxyphenyl)-5-(3-pyrimidin-5-ylphenyl)-5H-pyrrolo[3,4-b]pyridin-7-amine], the inhibition constant (Ki) came to 282 nM. As for `COc1ccc(C2(c3cccc(-c4cccnc4F)c3)N=C(N)c3ncccc32)cc1` (stereo not drawn) [Example 6, 5-[3-(2-Fluoropyridin-3-yl)phenyl]-5-(4-methoxyphenyl)-5H-pyrrolo[3,4-b]pyridin-7-amine], the figure is 275 nM; as for `COc1ccc(C2(c3cccc(-c4cncc(OC)c4)c3)N=C(N)c3ncccc32)cc1` (stereo not drawn) [Example 7, 5-(4-Methoxyphenyl)-5-[3-(5-methoxypyridin-3-yl)phenyl]-5H-pyrrolo[3,4-b]pyridin-7-amine], 178 nM. As for `COc1ccc(C2(c3cccc(-c4cccnc4)c3)N=C(N)c3ncccc32)cc1` (stereo not drawn) [Example 8, 5-(4-Methoxyphenyl)-5-(3-pyridin-3-ylphenyl)-5H-pyrrolo[3,4-b]pyridin-7-amine], the figure is 339 nM.

Consider `NC1=NC(c2ccncc2)(c2cccc(-c3cccnc3F)c2)c2cccnc21` (stereo not drawn) [Example 9, 5-[3-(2-Fluoropyridin-3-yl)phenyl]-5-pyridin-4-yl-5H-pyrrolo[3,4-b]pyridin-7-amine], for which the affinity corresponds to a Ki of 295 nM.

`NC1=NC(c2ccncc2)(c2cccc(-c3cncnc3)c2)c2cccnc21` (stereo not drawn) [Example 10, 5-Pyridin-4-yl-5-(3-pyrimidin-5-ylphenyl)-5H-pyrrolo[3,4-b]pyridin-7-amine] registered an inhibition constant Ki of 324 nM. Regarding `COc1ccc(F)c(-c2cccc(C3(c4ccncc4)N=C(N)c4ncccc43)c2)c1` (stereo not drawn) [Example 11, 5-(2′-Fluoro-5-methoxybiphenyl-3-yl)-5-pyridin-4-yl-5H-pyrrolo[3,4-b]pyridin-7-amine 0.25 acetate], affinity was put at a Ki of 219 nM. As for `COc1cccc(-c2cccc(C3(c4ccncc4)N=C(N)c4ncccc43)c2)c1F` (stereo not drawn) [Example 12, 5-(2′-Fluoro-3′-methoxybiphenyl-3-yl)-5-pyridin-4-yl-5H-pyrrolo[3,4-b]pyridin-7-amine 0.5 acetate], the figure is 398 nM. As for `NC1=NC(c2ccncc2)(c2cccc(-c3cncnc3)c2)c2cnccc21` (stereo not drawn) [Example 16, 3-Pyridin-4-yl-3-(3-pyrimidin-5-ylphenyl)-3H-pyrrolo[3,4-c]pyridin-1-amine], the figure is 91 nM; as for `NC1=NC(c2ccncc2)(c2cccc(-c3cccnc3F)c2)c2cnccc21` (stereo not drawn) [Example 17, 3-[3-(2-Fluoropyridin-3-yl)phenyl]-3-pyridin-4-yl-3H-pyrrolo[3,4-c]pyridin-1-amine], 62 nM. As for `NC1=NC(c2ccncc2)(c2cccc(-c3cccnc3F)c2)c2ncccc21` (stereo not drawn) [Example 21, 7-[3-(2-Fluoropyridin-3-yl)phenyl]-7-pyridin-4-yl-7H-pyrrolo[3,4-b]pyridin-5-amine], the figure is 93 nM.

In turn, `NC1=NC(c2ccncc2)(c2cccc(-c3cncnc3)c2)c2ncccc21` (stereo not drawn) [Example 22, 7-Pyridin-4-yl-7-(3-pyrimidin-5-ylphenyl)-7H-pyrrolo[3,4-b]pyridin-5-amine] returned a Ki of 170 nM.
